In data set [1] the target is T1, mTOR (Homo sapiens, UniProt P42345). The data set can be described thus: mTOR enzyme assay (DELFIA format, His6-S6K substrate). To be noted: read-out: mTOR Kinase Median IC50. In kind it is biochemical.
Data set [2] addresses PI3Kγ (Homo sapiens, UniProt P48736). Briefly: PI3K-gamma fluorescence polarization assay. Format: biochemical. The note with it: read-out: PI3Kγ Median IC50. (In fluorescence polarisation assays a small probe gives low polarisation when free and higher when bound to something large.)
In data set [3] the target is PI3Kα (Homo sapiens, UniProt P42336). The data set can be described thus: PI3K-alpha fluorescence polarization assay. Format: biochemical. The note with it: read-out: PI3Kα Median IC50.
For data set [4], the system named is human tumor xenograft models. To be noted: cited from earlier work.
The test system of data set [5] is acute lymphoblastic leukemia. To be noted: NOS/SCID xenograft; cited from earlier work.
Data set [6] concerns the target T1, mTOR. The note with it: read-out: mTOR complexes / mTOR enzymes IC50; literature value; cited from earlier work.

Where two headings read alike, the source gives them in different places.

Chain of PI3Kα (P42336 whole entry, species assumed): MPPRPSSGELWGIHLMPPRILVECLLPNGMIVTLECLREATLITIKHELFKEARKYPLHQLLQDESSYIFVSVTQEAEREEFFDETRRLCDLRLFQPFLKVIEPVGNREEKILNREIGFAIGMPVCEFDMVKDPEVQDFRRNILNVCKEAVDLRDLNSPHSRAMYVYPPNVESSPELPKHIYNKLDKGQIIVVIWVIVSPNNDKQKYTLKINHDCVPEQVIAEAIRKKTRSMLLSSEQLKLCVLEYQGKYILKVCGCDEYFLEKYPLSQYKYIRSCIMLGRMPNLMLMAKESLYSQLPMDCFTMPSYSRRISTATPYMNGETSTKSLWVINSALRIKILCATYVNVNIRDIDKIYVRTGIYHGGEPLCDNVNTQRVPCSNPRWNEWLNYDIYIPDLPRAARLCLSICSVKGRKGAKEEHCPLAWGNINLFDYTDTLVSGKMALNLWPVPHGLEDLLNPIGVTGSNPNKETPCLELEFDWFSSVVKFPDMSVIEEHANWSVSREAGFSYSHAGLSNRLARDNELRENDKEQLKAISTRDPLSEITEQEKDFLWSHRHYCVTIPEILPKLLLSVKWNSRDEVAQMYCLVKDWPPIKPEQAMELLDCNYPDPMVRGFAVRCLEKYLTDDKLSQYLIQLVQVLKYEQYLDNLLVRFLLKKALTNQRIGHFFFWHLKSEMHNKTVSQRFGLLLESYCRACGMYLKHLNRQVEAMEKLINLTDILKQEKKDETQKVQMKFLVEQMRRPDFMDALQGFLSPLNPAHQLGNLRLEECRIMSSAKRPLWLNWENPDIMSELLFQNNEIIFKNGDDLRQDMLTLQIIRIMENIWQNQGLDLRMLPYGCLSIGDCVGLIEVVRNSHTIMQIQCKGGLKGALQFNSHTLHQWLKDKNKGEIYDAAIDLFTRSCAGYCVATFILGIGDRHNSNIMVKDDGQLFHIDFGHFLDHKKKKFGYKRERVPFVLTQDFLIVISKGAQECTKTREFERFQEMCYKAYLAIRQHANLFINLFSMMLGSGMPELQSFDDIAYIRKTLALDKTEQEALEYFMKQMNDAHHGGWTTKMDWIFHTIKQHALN
Chain of PI3Kα (P27986 whole entry partner, species assumed): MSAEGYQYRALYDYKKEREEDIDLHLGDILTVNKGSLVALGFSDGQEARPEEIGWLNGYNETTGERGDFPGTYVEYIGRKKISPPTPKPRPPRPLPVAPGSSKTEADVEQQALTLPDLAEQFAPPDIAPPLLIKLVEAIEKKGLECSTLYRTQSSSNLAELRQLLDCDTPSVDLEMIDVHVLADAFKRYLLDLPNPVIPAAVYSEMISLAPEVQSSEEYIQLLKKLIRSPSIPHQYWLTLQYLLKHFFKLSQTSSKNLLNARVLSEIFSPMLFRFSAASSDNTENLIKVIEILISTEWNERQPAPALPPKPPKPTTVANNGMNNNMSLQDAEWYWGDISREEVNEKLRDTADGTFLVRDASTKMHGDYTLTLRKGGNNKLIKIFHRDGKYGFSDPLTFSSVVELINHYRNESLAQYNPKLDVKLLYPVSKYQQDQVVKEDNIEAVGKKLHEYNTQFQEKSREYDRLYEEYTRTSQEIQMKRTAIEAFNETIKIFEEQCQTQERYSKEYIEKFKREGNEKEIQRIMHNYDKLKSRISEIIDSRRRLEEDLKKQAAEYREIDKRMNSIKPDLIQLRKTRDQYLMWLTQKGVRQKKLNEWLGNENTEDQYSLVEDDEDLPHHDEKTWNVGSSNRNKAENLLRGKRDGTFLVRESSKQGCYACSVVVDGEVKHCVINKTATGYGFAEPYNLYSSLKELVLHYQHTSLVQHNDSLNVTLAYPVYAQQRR
Chain of PI3Kγ (P48736 whole entry, species assumed): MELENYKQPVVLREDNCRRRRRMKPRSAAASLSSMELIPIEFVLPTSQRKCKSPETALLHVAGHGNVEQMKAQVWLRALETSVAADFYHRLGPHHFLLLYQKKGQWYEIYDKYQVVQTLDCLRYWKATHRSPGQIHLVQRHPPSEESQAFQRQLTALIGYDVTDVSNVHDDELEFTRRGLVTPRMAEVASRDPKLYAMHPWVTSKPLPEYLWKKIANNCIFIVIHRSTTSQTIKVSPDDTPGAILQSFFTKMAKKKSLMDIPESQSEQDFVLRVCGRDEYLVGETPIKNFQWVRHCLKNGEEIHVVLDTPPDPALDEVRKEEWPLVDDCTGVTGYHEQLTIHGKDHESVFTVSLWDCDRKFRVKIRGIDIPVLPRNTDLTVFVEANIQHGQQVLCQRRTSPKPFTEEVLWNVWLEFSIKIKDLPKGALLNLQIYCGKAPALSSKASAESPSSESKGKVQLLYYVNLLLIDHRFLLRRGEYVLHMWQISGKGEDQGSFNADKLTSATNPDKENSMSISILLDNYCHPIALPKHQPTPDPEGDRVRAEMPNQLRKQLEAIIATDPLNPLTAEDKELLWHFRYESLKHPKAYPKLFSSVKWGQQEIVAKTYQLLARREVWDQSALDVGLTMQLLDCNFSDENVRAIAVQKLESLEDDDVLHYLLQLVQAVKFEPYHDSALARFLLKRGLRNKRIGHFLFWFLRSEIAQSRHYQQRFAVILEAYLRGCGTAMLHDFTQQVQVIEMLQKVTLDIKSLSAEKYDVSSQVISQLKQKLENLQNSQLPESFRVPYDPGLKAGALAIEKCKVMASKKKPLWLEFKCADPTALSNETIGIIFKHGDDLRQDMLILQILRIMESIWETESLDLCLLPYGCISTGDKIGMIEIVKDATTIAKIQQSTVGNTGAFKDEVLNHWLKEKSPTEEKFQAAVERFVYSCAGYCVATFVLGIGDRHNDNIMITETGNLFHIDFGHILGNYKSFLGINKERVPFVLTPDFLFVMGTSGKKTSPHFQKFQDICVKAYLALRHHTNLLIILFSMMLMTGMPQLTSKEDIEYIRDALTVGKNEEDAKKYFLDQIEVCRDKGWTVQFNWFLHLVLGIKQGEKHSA

In the case of `Cn1cc(/C=C2\Oc3cccc(O)c3C2=O)c2c(N3CCC(C(=O)N4CCN(CCO)CC4)CC3)ccnc21` [Compound 307, (2Z)-4-hydroxy-2-{[4-(4-{[4-(2-hydroxyethyl)piperazin-1-yl]carbonyl}piperidin-1-yl)-1-methyl-1H-pyrrolo[2,3-b]pyridin-3-yl]methylidene}-1-benzofuran-3(2H)-one], the melting point (usually the temperature of the solid-liquid transition) lay in the range of 136 to 140 °C. In addition, the IC50 in data set [1] came out at 1.9 nM. Besides, the IC50 in data set [2] was determined as 158 nM. For the same compound, the IC50 in data set [3] was 24 nM.

`COCC1CN(C(=O)C2CCN(c3ccnc4c3c(/C=C3\Oc5ccc(NC(=O)Nc6cccnc6)cc5C3=O)cn4C)CC2)CCO1` (centres unmarked) [Compound 308, 1-[(2Z)-2-{[4-(4-{[2-(methoxymethyl)morpholin-4-yl]carbonyl}piperidin-1-yl)-1-methyl-1H-pyrrolo[2,3-b]pyridin-3-yl]methylidene}-3-oxo-2,3-dihydro-1-benzofuran-5-yl]-3-pyridin-3-ylurea] gave a melting point of 206 to 210 °C. For the same compound, in data set [1], the IC50 was determined as 37 nM. The IC50 in data set [2] amounted to 2800 nM. The IC50 in data set [3] worked out at 729 nM.

`Cn1cc(/C=C2\Oc3ccc(NC(=O)Nc4cccnc4)cc3C2=O)c2c(N3CCC(C(=O)N4C5CCCC4COC5)CC3)ccnc21` [Compound 309, 1-[(2Z)-2-({1-methyl-4-[4-(3-oxa-9-azabicyclo[3.3.1]non-9-ylcarbonyl)piperidin-1-yl]-1H-pyrrolo[2,3-b]pyridin-3-yl}methylidene)-3-oxo-2,3-dihydro-1-benzofuran-5-yl]-3-pyridin-3-ylurea] came in with a melting point of 210 to 215 °C. In data set [1], the IC50 came to 48 nM. Besides, the IC50 in data set [2] amounted to 1370 nM. Besides, the IC50 in data set [3] worked out at 164 nM.

`COCC1CN(C(=O)c2ccc(-c3ccnc4c3c(/C=C3\Oc5cccc(O)c5C3=O)cn4C)cc2)CCO1` (centres unmarked) [Compound 310, (2Z)-4-hydroxy-2-{[4-(4-{[2-(methoxymethyl)morpholin-4-yl]carbonyl}phenyl)-1-methyl-1H-pyrrolo[2,3-b]pyridin-3-yl]methylidene}-1-benzofuran-3(2H)-one]: the melting point lay within 222 to 226 °C. Also, in data set [1], the IC50 came out at 1.4 nM. Besides, the IC50 in data set [2] worked out at 212 nM. Moreover, in data set [3], the IC50 worked out at 73 nM.

`COCC1CN(C(=O)C2CCN(c3ccnc4c3c(/C=C3\Oc5cccc(O)c5C3=O)cn4C)CC2)CCO1` (centres unmarked) [Compound 311, (2Z)-4-hydroxy-2-{[4-(4-{[2-(methoxymethyl)morpholin-4-yl]carbonyl}piperidin-1-yl)-1-methyl-1H-pyrrolo[2,3-b]pyridin-3-yl]methylidene}-1-benzofuran-3(2H)-one]: the melting point lay in the range of 112 to 115 °C. In addition, the IC50 in data set [1] stood at 3.8 nM. In addition, the IC50 in data set [2] stood at 698 nM. For the same compound, in data set [3], the IC50 was found to be 145 nM.

For the compound `Cn1cc(/C=C2\Oc3cccc(O)c3C2=O)c2c(N3CCC(C(=O)N4C5CCCC4COC5)CC3)ccnc21` [Compound 312, (2Z)-4-hydroxy-2-({1-methyl-4-[4-(3-oxa-9-azabicyclo[3.3.1]non-9-ylcarbonyl)piperidin-1-yl]-1H-pyrrolo[2,3-b]pyridin-3-yl}methylidene)-1-benzofuran-3(2H)-one], the melting point fell in the range of 210 to 218 °C. The IC50 in data set [1] is 3.2 nM. The IC50 in data set [2] amounted to 453 nM. Moreover, the IC50 in data set [3] came to 67 nM.

For `Cn1c(=O)n(-c2ccc(C(C)(C)C#N)cc2)c2c3cc(-c4cnc5ccccc5c4)ccc3ncc21` [NVP-BEZ-235, 2-methyl-2-(4-(3-methyl-2-oxo-8-(quinolin-3-yl)-2,3-dihydro-1H-imidazo[4,5-c]quinolin-1-yl)phenyl)propanenitrile], the “activity against human tumor models” value in data set [4] (prostrate (PC-3) and glioblastoma (U-87)) was “demonstrated activity”.

As to `Oc1cccc(-c2nc(N3CCOCC3)c3oc4ncccc4c3n2)c1` [PI103, 3-(4-(4-morpholinyl)pyrido[3′,2′:4,5]furo[3,2-d]pyrimidin-2-yl)phenol], in data set [4] (I.P. dosing in mice, U87MG, PC3, MDA-MB-468, MDA-MB-435, HCT 116, SKOV3, IGROV-1), the “activity against human tumor models” value is reported as “demonstrated activity”.

As for `CO[C@H]1C[C@@H]2CC[C@@H](C)[C@@](O)(O2)C(=O)C(=O)N2CCCC[C@H]2C(=O)O[C@H]([C@H](C)C[C@@H]2CC[C@@H](OC(=O)C(C)(CO)CO)[C@H](OC)C2)CC(=O)[C@H](C)/C=C(\C)[C@@H](O)[C@@H](OC)C(=O)[C@H](C)C[C@H](C)/C=C/C=C/C=C/1C` [Torisel], the “activity in xenograft mouse model” value in data set [5] is listed as “active”.

As to `FC(F)c1nc2ccccc2n1-c1nc(N2CCOCC2)nc(N2CCOCC2)n1` [ZSTK474, 2-(2-difluoromethylbenzoimidazol-1-yl)-4,6-dimorpholino-1,3,5-triazine], the tumor growth inhibition result in data set [4] (chronic oral administration, 400 mg/kg, A549, PC-3, WiDr) is “completely inhibited growth”. Besides, the IC50 in data set [6] was > 10000 nM.

(Values after patent publication US20090298820A1, “3-SUBSTITUTED-1H-PYRROLO[2,3-B]PYRIDINE AND 3-SUBSTITUTED-1H-PYRROLO[3,2-B]PYRIDINE COMPOUNDS, THEIR USE AS MTOR KINASE AND PI3 KINASE INHIBITORS, AND THEIR SYNTHESES” (Wyeth, priority 2008, published 2009).)
